From US11168079B2, “Alkene compounds as farnesoid x receptor modulators” (BRISTOL-MYERS SQUIBB COMPANY, priority 2017, dated 2021)
Read-outs that look alike come from different tables or passages of the source.

Target: T1, human FXR (Homo sapiens, UniProt Q96RI1)
T1 sequence (Q96RI1 262-486 limits assumed): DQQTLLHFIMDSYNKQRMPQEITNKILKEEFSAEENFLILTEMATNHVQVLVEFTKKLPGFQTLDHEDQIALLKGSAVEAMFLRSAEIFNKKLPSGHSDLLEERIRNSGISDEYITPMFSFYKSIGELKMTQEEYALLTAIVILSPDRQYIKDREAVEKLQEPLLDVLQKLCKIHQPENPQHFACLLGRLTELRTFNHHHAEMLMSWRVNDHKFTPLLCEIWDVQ
Assay: transient human FXR/Gal4-luciferase reporter assay (HLE GAL-FXR)
Conditions: HEK293 cells

[1] = FXR EC50 (nM), Gal4-hFXR fusion reporter, Table 1
[2] = read-out: FXR EC50, Gal4-hFXR fusion reporter, Table 1
[3] = HLE GAL-FXR EC50, Gal4-hFXR fusion reporter

| SMILES | EC50 [1] | other results |
| --- | --- | --- |
| O=C(O)c1cnc2cc(N3CC4C(/C=C/c5c(-c6c(Cl)cncc6Cl)noc5C5CC5)C4C3)ccc2n1 (stereo not shown) [Example 161] | 192 nM |  |
| CCOc1cc(N2CC3C(/C=C/c4c(-c5ccccc5C(F)(F)F)noc4C4CC4)C3C2)cnc1C(=O)O (stereo not shown) [Example 163] | 424 nM |  |
| COc1cc(-c2nc(N3CC4C(/C=C/c5c(-c6c(Cl)cncc6Cl)noc5C5CC5)C4C3)no2)cc(C(=O)O)n1 (stereo not shown) [Example 164] | 297 nM |  |
| COc1cc(C(=O)O)cc(-c2nc(N3CC4C(/C=C/c5c(-c6c(Cl)cncc6Cl)noc5C5CC5)C4C3)no2)c1 (stereo not shown) [Example 165] |  | EC50 [2]: 222 nM |
| COc1cc(C(=O)O)nc2ccc(N3CC(/C=C/c4c(-c5c(Cl)cncc5Cl)noc4C4CC4)C3)cc12 [Example 166] | 29 nM |  |
| COc1cc(C(=O)O)nc2ccc(N3CC(/C=C/c4c(-c5cccnc5C(F)(F)F)noc4C4CC4)C3)cc12 [Example 169] | 223 nM |  |
| COCc1cc(C(=O)O)nc2ccc(N3CC(/C=C/c4c(-c5cccnc5C(F)(F)F)noc4C4CC4)C3)cc12 [Example 171] |  | EC50 [2]: 65 nM |
| COc1cc(C(=O)O)nc2ccc(N3CC(/C=C/c4c(-c5ccccc5C(F)(F)F)noc4C4CC4)C3)nc12 [Example 173] | 375 nM |  |
| O=C(O)c1cc(OCC(F)F)c2cc(N3CC(/C=C/c4c(-c5ccccc5C(F)(F)F)noc4C4CC4)C3)ccc2n1 [Example 182] | 72 nM |  |
| NC(=O)c1cc(OC2CC2)c2cc(N3CC4C(/C=C/c5c(-c6ccccc6C(F)(F)F)noc5C5CC5)C4C3)ccc2n1 (stereo not shown) [Example 183, (E)-4-Cyclopropoxy-6-(6-(2-(5-cyclopropyl-3-(2-(trifluoromethyl)phenyl)-isoxazol-4-yl)vinyl)-3-azabicyclo[3.1.0]hexan-3-yl)quinoline-2-carboxamide] |  | EC50 [3]: 908 nM |
| O=C(O)c1cc(OC2CC2)c2cc(N3CC4C(/C=C/c5c(-c6ccccc6C(F)(F)F)noc5C5CC5)C4C3)ccc2n1 (stereo not shown) [Example 184, (E)-4-Cyclopropoxy-6-(6-(2-(5-cyclopropyl-3-(2-(trifluoromethyl)phenyl)-isoxazol-4-yl)vinyl)-3-azabicyclo[3.1.0]hexan-3-yl)quinoline-2-carboxylic acid] |  | EC50 [3]: 50 nM |
| O=C(O)c1cc(O[C@H]2C[C@@H](F)C2)c2cc(N3CC(/C=C/c4c(-c5ccccc5C(F)(F)F)noc4C4CC4)C3)ccc2n1 [Example 187] | 348 nM |  |
| O=C(O)c1cc(O[C@@H]2CCOC2)c2cc(N3CC(/C=C/c4c(-c5cccnc5C(F)(F)F)noc4C4CC4)C3)ccc2n1 [Example 188] | 1690 nM |  |
| O=C(O)c1cc(O[C@H]2CCOC2)c2cc(N3CC(/C=C/c4c(-c5ccccc5C(F)(F)F)noc4C4CC4)C3)ccc2n1 [Example 193] | 343 nM |  |
| O=C(O)c1cc(O[C@H]2C[C@H](F)C2)c2cc(N3CC(/C=C/c4c(-c5ccccc5C(F)(F)F)noc4C4CC4)C3)ccc2n1 [Example 194] | 159 nM |  |
| O=C(O)c1cc(O[C@H]2C[C@@H](F)C2)c2cc(N3CC(/C=C/c4c(-c5cccnc5C(F)(F)F)noc4C4CC4)C3)ccc2n1 [Example 195] | 286 nM |  |

| SMILES | EC50 [1] | other results |
| --- | --- | --- |
| O=C(O)c1cc(OC2CC2)c2cc(N3CC(/C=C/c4c(-c5ccccc5C(F)(F)F)noc4C4CC4)C3)ccc2n1 [Example 196] | 53 nM |  |
| COc1cc(C(=O)O)nc2c(F)cc(N3CC4C(/C=C/c5c(-c6c(Cl)cncc6Cl)noc5C5CC5)C4C3)cc12 (stereo not shown) [Example 198] | 71 nM |  |
| O=C(O)c1cc(O[C@H]2C[C@H](F)C2)c2cc(N3CC4C(/C=C/c5c(-c6ccccc6C(F)(F)F)noc5C5CC5)C4C3)ccc2n1 (stereo partly shown) [Example 199] | 63 nM |  |
| O=C(O)c1cc(OCC(F)F)c2cc(N3CC4C(/C=C/c5c(-c6c(Cl)cncc6Cl)noc5C5CC5)C4C3)ccc2n1 (stereo not shown) [Example 200] | 21 nM |  |
| Cn1cc(C(=O)O)c2ccc(N3CC(/C=C/c4c(-c5ccccc5C(F)(F)F)noc4C4CC4)C3)cc21 [Example 201] | 178 nM |  |
| O=C(O)c1cc(O[C@H]2C[C@@H](F)C2)c2cc(N3CC4C(/C=C/c5c(-c6c(Cl)cncc6Cl)noc5C5CC5)C4C3)ccc2n1 (stereo partly shown) [Example 203] | 16 nM |  |
| O=C(O)c1ccc(-c2ccc(N3CC(/C=C/c4c(-c5ccccc5C(F)(F)F)noc4C4CC4)C3)cc2)cc1 [Example 205] | 189 nM |  |
| COc1cc(C(=O)O)nc2ccc(N3CC(/C=C/c4c(-c5ccccc5OC(F)(F)F)noc4C4CC4)C3)cc12 [Example 206] | 216 nM |  |
| COc1cc(C(=O)O)cc(-c2csc(N3CC4C(/C=C/c5c(-c6c(Cl)cncc6Cl)noc5C5CC5)C4C3)n2)c1 (stereo not shown) [Example 208, (E)-3-(2-(6-(2-(5-Cyclopropyl-3-(3,5-dichloropyridin-4-yl)isoxazol-4-yl)vinyl)-3-azabicyclo[3.1.0]hexan-3-yl)thiazol-4-yl)-5-methoxybenzoic acid] |  | EC50 [3]: 247 nM |
| Cn1cc(C(=O)O)c2ncc(N3CC4C(/C=C/c5c(-c6c(Cl)cncc6Cl)noc5C5CC5)C4C3)cc21 (stereo not shown) [Example 209] | 472 nM |  |
| COc1cc(C(=O)O)cc(-c2nc(N3CC4C(/C=C/c5c(-c6c(Cl)cncc6Cl)noc5C5CC5)C4C3)ns2)c1 (stereo not shown) [Example 210, (E)-3-(3-(6-(2-(5-Cyclopropyl-3-(3,5-dichloropyridin-4-yl)isoxazol-4-yl)vinyl)-3-azabicyclo[3.1.0]hexan-3-yl)-1,2,4-thiadiazol-5-yl)-5-methoxybenzoic acid] |  | EC50 [3]: 670 nM |
| Cn1cc(C(=O)O)c2ncc(N3CC4C(/C=C/c5c(-c6ccccc6C(F)(F)F)noc5C5CC5)C4C3)cc21 (stereo not shown) [Example 211] | 154 nM |  |
| O=C(O)c1c2ccc(N3CC4C(/C=C/c5c(-c6c(Cl)cccc6Cl)noc5C5CC5)C4C3)cc2nn1CC1CC1 (stereo not shown) [Example 212] | 21 nM |  |
| COc1cc(C(=O)O)cc(-c2nsc(N3CC4C(/C=C/c5c(-c6c(Cl)cncc6Cl)noc5C5CC5)C4C3)n2)c1 (stereo not shown) [Example 214, (E)-3-(5-(6-(2-(5-Cyclopropyl-3-(3,5-dichloropyridin-4-yl)isoxazol-4-yl)vinyl)-3-azabicyclo[3.1.0]hexan-3-yl)-1,2,4-thiadiazol-3-yl)-5-methoxybenzoic acid] |  | EC50 [3]: 107 nM |
| COc1cc(C(=O)O)cc(-c2cnc(N3CC4C(/C=C/c5c(-c6c(Cl)cncc6Cl)noc5C5CC5)C4C3)s2)c1 (stereo not shown) [Example 216, (E)-3-(2-(6-(2-(5-cyclopropyl-3-(3,5-dichloropyridin-4-yl)isoxazol-4-yl)vinyl)-3-azabicyclo[3.1.0]hexan-3-yl)thiazol-5-yl)-5-methoxybenzoic acid] |  | EC50 [3]: 202 nM |
| COc1cc(C(=O)O)cc(-c2ccc(N3CC(/C=C/c4c(-c5c(Cl)cncc5Cl)noc4C4CC4)C3)cc2)c1 [Example 219] | 117 nM |  |

Second part, led by results:

| EC50 [1] | SMILES | other results |
| --- | --- | --- |
| 150 nM | O=C(O)c1cc(C(F)(F)F)c2cc(N3CC(/C=C/c4c(-c5c(Cl)cncc5Cl)noc4C4CC4)C3)ccc2n1 [Example 162] |  |
| 308 nM | O=C(O)c1cnc2cc(N3CC(/C=C/c4c(-c5c(Cl)cncc5Cl)noc4C4CC4)C3)ccc2n1 [Example 167] |  |
| 1100 nM | COc1c(C(=O)O)cccc1-c1nc(N2CC3C(/C=C/c4c(-c5c(Cl)cncc5Cl)noc4C4CC4)C3C2)no1 (stereo not shown) [Example 168] |  |
| 50 nM | O=C(O)c1cc(OC2CCC2)c2cc(N3CC(/C=C/c4c(-c5cccnc5C(F)(F)F)noc4C4CC4)C3)ccc2n1 [Example 170] |  |
| 37 nM | O=C(O)c1cc(OC2CC2)c2cc(N3CC(/C=C/c4c(-c5cccnc5C(F)(F)F)noc4C4CC4)C3)ccc2n1 [Example 178] |  |
| 276 nM | Cn1cc(C(=O)O)c(=O)c2ccc(N3CC4C(/C=C/c5c(-c6c(Cl)cncc6Cl)noc5C5CC5)C4C3)cc21 (stereo not shown) [Example 180] |  |
| 400 nM | Cn1cc(C(=O)O)c(=O)c2ccc(N3CC(/C=C/c4c(-c5ccccc5C(F)(F)F)noc4C4CC4)C3)cc21 [Example 181] |  |
| 11 nM | O=C(O)c1cc(O[C@H]2C[C@@H](F)C2)c2cc(N3CC4C(/C=C/c5c(-c6ccccc6C(F)(F)F)noc5C5CC5)C4C3)ccc2n1 (stereo partly shown) [Example 185] |  |
| 228 nM | COCc1cc(C(=O)O)nc2ccc(N3CC(/C=C/c4c(-c5ccccc5C(F)(F)F)noc4C4CC4)C3)cc12 [Example 186] |  |
| 650 nM | O=C(O)c1cc(O[C@H]2CCOC2)c2cc(N3CC(/C=C/c4c(-c5cccnc5C(F)(F)F)noc4C4CC4)C3)ccc2n1 [Example 189] |  |
| 376 nM | Cn1cc(C(=O)O)c(=O)c2ccc(N3CC4C(/C=C/c5c(-c6ccccc6C(F)(F)F)noc5C5CC5)C4C3)cc21 (stereo not shown) [Example 190] |  |
| 132 nM | CCn1cc(C(=O)O)c(=O)c2ccc(N3CC4C(/C=C/c5c(-c6ccccc6C(F)(F)F)noc5C5CC5)C4C3)cc21 (stereo not shown) [Example 192] |  |
| 30 nM | [2H]C([2H])([2H])Oc1cc(C(=O)O)nc2ccc(N3CC4C(/C=C/c5c(-c6c(Cl)cncc6Cl)noc5C5CC5)C4C3)cc12 (stereo not shown) [Example 202] |  |
| 19 nM | O=C(O)c1cc(O[C@H]2C[C@H](F)C2)c2cc(N3CC4C(/C=C/c5c(-c6c(Cl)cncc6Cl)noc5C5CC5)C4C3)ccc2n1 (stereo partly shown) [Example 204] |  |
| 64 nM | O=C(O)c1cccc(-c2ccc(N3CC(/C=C/c4c(-c5ccccc5C(F)(F)F)noc4C4CC4)C3)cc2)c1 [Example 207] |  |
| 199 nM | COc1cc(C(=O)O)nc2c(F)cc(N3CC(/C=C/c4c(-c5ccccc5C(F)(F)F)noc4C4CC4)C3)cc12 [Example 215] |  |
| 1400 nM | O=C(O)c1cc(OC2CC2)c2cc(N3CC(/C=C/c4c(-c5ccccc5OC(F)(F)F)noc4C(F)(F)F)C3)ccc2n1 [Example 217] |  |
| 1600 nM | O=C(O)c1cccc(-c2nnc(N3CC4C(/C=C/c5c(-c6c(Cl)cncc6Cl)noc5C5CC5)C4C3)o2)c1 (stereo not shown) [Example 218] |  |
| 107 nM | O=C(O)c1cnn(-c2ccc(N3CC(/C=C/c4c(-c5c(Cl)cncc5Cl)noc4C4CC4)C3)cc2)c1 [Example 220] |  |
| 56 nM | COc1cc(C(=O)O)cc(-c2ccc(N3CC(/C=C/c4c(-c5ccccc5C(F)(F)F)noc4C4CC4)C3)cn2)c1 [Example 221] |  |
